{"source": "patent US8703815B2", "about": "“Small molecules that covalently modify transthyretin” (The Scripps Research Institute, priority 2009, dated 2014)", "molecular_target": "T1, WT-TTR (Homo sapiens, UniProt P02766)", "T1 construct": "composed of 127-residue β-sheet-rich subunits; made in house; host or cells: E. coli", "test": "Kinetics of the A2-TTR conjugation reaction (fluorescence)", "assay_type": "binding", "settings": "A2 6 μM", "experimental": "Because the one-chain, one-binding-site TTR tag being created is envisioned to be useful for doing pulse-chase studies in the secretory pathway of eukaryotic cells, the kinetics of WT-TTR modification by A2 in concentrated cell lysate was investigated. […] We added WT-TTR at a final concentration of 2 μM (tetramer) to the HeLa cell lysate (2 μg/μL total protein concentration) to which A2 (6 μM) was added. At 37° C., the conjugate formed with a t50 of 18 minutes, within experimental error of the t50 (19 minutes) of TTR (2 μM) conjugate formation with A2 (6 μM) in phosphate buffer (pH 7).\nThe covalent TTR modifier A2 (1 μL of 0.6 mM solution in DMSO, final concentration: 6 μM) was added to 90 μL of HeLa cell lysate (final protein concentration: 2 μg/μL) and 10 μL of WT-TTR (20 μM in pH 7.0 phosphate buffer, final concentration: 2 μM). The time-dependent fluorescence change of the conjugate derived from A2 was monitored utilizing a microplate spectrophotometer reader (Gemini SpectraMax®, Molecular Devices, Sunnyvale, Calif.) for 3 hours at 37° C. The fluorescence (λex=328 nm and λem=430 nm) was measured from the bottom of the plate without shaking.", "note": "Where “and” joins values, the source holds several entries; their conditions need not be identical. Equal entries are not always repeated."}
{"smiles": "Cc1cc(/C=C/c2cc(C(=O)Sc3ccc(F)cc3)cc(N(C)C)c2)cc(C)c1O", "note": "[Compound A2, (E)-S-4-fluorophenyl 3-(dimethylamino)-5-(4-hydroxy-3,5-dimethylstyryl)-benzothioate]", "values": [{"measurement": "t50 of conjugate formation in phosphate buffer (pH 7)", "setting": "TTR 2 μM", "result": 19, "unit": "minutes"}, {"measurement": "t50 of conjugate formation in HeLa cell lysate", "setting": "WT-TTR 2 μM, lysate 2 μg/μL, 37° C.", "result": "18 min and 20 min"}]}
